SMILES strings stand for the structures.

This experiment has as its target T1, cellular PARG (Homo sapiens, UniProt Q86W56).
T1 construct: endogenous in cells; host or cells: HeLa
The experiment is described as follows: Nuclear PAR accumulation assay (immunofluorescence high-content imaging, MMS-treated HeLa cells). Type of experiment: cell-based. As to conditions: 1 hour compound then MMS 50 μg/mL for an additional hour. How it is done: HeLa cells were plated at 15,000 cells/well in a 96-well plate the day before compound treatment and then treated with varying concentrations of test compound and incubated for 1 hour at 37° C.+5% CO2. Following test compound treatment, methylmethane sulfonate (MMS) was added to a final concentration of 50 μg/mL and the cells were incubated for an additional hour. Following treatment, the cells were fixed with ice cold 95% methanol and the plates sealed and placed at -20° C. for 15 minutes. The cells were then washed once with phosphate buffered saline (PBS) and permeabilized with 0.10% Triton-X 100 for 20 minutes at room temperature. […] The cells were then washed three times with PBS before incubation with a fluorescently conjugated goat anti-mouse antibody (Invitrogen A32723) diluted 1:500 in 5% FBS+0.1% Tween-20+PBS for 1 hour at room temperature. The cells were again washed three times with PBS and the nuclei labeled by incubating with 1 μg/mL DAPI (4′,6-diamidino-2-phenylindole). Nuclear PAR accumulation was evaluated using high-content fluorescence microscopy. Four fields for each well were acquired at 20× magnification resulting in at least 1,000 cells analyzed per well. […] Both the average intensity per nucleus and percent PAR positive cells were quantified. […] Concentration-response-curves and IC50 values were generated using four parameter logistic curve fit software.
Representative data for exemplary compounds is presented in Table 32, Table 33 and Table 34.

T1 sequence (Q86W56 whole entry): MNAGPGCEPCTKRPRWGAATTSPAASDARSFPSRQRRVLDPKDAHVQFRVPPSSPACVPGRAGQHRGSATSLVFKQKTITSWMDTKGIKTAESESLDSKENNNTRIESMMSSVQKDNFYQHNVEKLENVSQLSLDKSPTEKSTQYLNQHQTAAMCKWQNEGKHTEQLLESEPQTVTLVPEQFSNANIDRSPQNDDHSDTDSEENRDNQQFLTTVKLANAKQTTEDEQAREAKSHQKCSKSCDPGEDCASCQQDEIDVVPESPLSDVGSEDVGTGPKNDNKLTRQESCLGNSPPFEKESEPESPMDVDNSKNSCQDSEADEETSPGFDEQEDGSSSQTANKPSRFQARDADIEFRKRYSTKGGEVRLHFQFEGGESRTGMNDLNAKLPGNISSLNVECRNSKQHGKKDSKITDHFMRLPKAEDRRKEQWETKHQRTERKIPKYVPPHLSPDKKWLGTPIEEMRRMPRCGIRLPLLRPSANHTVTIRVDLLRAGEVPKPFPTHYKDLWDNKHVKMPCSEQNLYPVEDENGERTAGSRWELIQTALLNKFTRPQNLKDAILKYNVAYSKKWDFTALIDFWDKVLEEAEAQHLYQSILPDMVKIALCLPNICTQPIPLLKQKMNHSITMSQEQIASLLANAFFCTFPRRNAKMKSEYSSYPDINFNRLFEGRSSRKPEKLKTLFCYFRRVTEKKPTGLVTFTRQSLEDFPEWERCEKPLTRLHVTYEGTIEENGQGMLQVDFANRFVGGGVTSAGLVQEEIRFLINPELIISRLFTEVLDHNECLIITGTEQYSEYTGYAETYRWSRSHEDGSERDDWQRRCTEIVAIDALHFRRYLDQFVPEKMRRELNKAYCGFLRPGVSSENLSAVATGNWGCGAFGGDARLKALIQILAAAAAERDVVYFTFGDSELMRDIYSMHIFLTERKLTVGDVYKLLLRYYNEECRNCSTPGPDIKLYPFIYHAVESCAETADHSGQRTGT

By IC50 is commonly meant the concentration needed to halve the response being measured. As for `C#CC1(C)CN=C2N(Cc3cnn(C)c3)C(=O)c3cc(S(=O)(=O)NC4(C)CC4)ccc3N21` (single isomer, unassigned) [Example 271, 1-ethynyl-1-methyl-4-((1-methyl-1H-pyrazol-4-yl)methyl)-N-(1-methylcyclopropyl)-5-oxo-1,2,4,5-tetrahydroimidazo[1,2-a]quinazoline-7-sulfonamide], the concentration for half-maximal inhibition (IC50) is less than 100 nM.

As to `C#CC1(C)CN=C2N(Cc3cnn(C)c3)C(=O)c3cc(S(=O)(=O)NC4(C)CC4)ccc3N21` (single isomer, unassigned) [Example 272, 1-ethynyl-1-methyl-4-((1-methyl-1H-pyrazol-4-yl)methyl)-N-(1-methylcyclopropyl)-5-oxo-1,2,4,5-tetrahydroimidazo[1,2-a]quinazoline-7-sulfonamide], the half-inhibitory concentration (IC50) was less than 100 nM. With `C[C@@H]1CN=C2N(Cc3cnn(C)c3)C(=O)c3cc(S(=O)(=O)NC4(C)CC4)cc(C4CC4)c3N21` [Example 1, (R)-9-cyclopropyl-1-methyl-4-((1-methyl-1H-pyrazol-4-yl)methyl)-N-(1-methylcyclopropyl)-5-oxo-1,2,4,5-tetrahydroimidazo[1,2-a]quinazoline-7-sulfonamide] the figure was less than 100 nM; with `C[C@@H]1CN=C2N(Cc3cnn(C)c3)C(=O)c3cc(S(=O)(=O)NC4(C)CC4)cc(N4CCC4)c3N21` [Example 2, (R)-9-(azetidin-1-yl)-1-methyl-4-((1-methyl-1H-pyrazol-4-yl)methyl)-N-(1-methylcyclopropyl)-5-oxo-1,2,4,5-tetrahydroimidazo[1,2-a]quinazoline-7-sulfonamide], less than 100 nM. With `Cn1cc(CN2C(=O)c3cc(S(=O)(=O)NC4(C)CC4)cc(Br)c3N3CC(C)(C)N=C23)cn1` [Example 3, 9-bromo-2,2-dimethyl-4-((1-methyl-1H-pyrazol-4-yl)methyl)-N-(1-methylcyclopropyl)-5-oxo-1,2,4,5-tetrahydroimidazo[1,2-a]quinazoline-7-sulfonamide] the figure was 100 to 1000 nM; with `CN1CC=C(c2cc(S(=O)(=O)NC3(C)CC3)cc3c2N2CC(C)(C)N=C2N(Cc2cnn(C)c2)C3=O)CC1` [Example 4, 2,2-dimethyl-9-(1-methyl-1,2,3,6-tetrahydropyridin-4-yl)-4-((1-methyl-1H-pyrazol-4-yl)methyl)-N-(1-methylcyclopropyl)-5-oxo-1,2,4,5-tetrahydroimidazo[1,2-a]quinazoline-7-sulfonamide], less than 100 nM. In turn, `CCc1noc(C)c1CN1C(=O)c2cc(S(=O)(=O)NC3(C)CC3)ccc2N2C1=NC[C@H]2C` [Example 5, (R)-4-((3-ethyl-5-methylisoxazol-4-yl)methyl)-1-methyl-N-(1-methylcyclopropyl)-5-oxo-1,2,4,5-tetrahydroimidazo[1,2-a]quinazoline-7-sulfonamide] returned an IC50 of less than 100 nM.

`C[C@@H]1CN=C2N(Cc3cnn(C)c3)C(=O)c3cc(S(=O)(=O)NC4(C)CC4)cc(-c4ccc(F)cn4)c3N21` [Example 6, (R)-9-(5-fluoropyridin-2-yl)-1-methyl-4-((1-methyl-1H-pyrazol-4-yl)methyl)-N-(1-methylcyclopropyl)-5-oxo-1,2,4,5-tetrahydroimidazo[1,2-a]quinazoline-7-sulfonamide]: the IC50 was less than 100 nM.

In turn, `COCc1nocc1CN1C(=O)c2cc(S(=O)(=O)NC3(C)CC3)ccc2N2C1=NC[C@H]2C` [Example 7, (R)-4-((3-(methoxymethyl)isoxazol-4-yl)methyl)-1-methyl-N-(1-methylcyclopropyl)-5-oxo-1,2,4,5-tetrahydroimidazo[1,2-a]quinazoline-7-sulfonamide] had an IC50 of 100 to 1000 nM. With `Cc1noc(C2CC2)c1CN1C(=O)c2cc(S(=O)(=O)NC3(C)CC3)ccc2N2C1=NC[C@H]2C` [Example 8, (R)-4-((5-cyclopropyl-3-methylisoxazol-4-yl)methyl)-1-methyl-N-(1-methylcyclopropyl)-5-oxo-1,2,4,5-tetrahydroimidazo[1,2-a]quinazoline-7-sulfonamide] the figure was less than 100 nM. For `COc1ccc(CN2C(=O)c3cc(S(=O)(=O)NC4(C)CC4)ccc3N3C2=NC[C@H]3C)cc1` [Example 9, (R)-4-(4-methoxybenzyl)-1-methyl-N-(1-methylcyclopropyl)-5-oxo-1,2,4,5-tetrahydroimidazo[1,2-a]quinazoline-7-sulfonamide] the value was 100 to 1000 nM; for `C[C@@H]1CN=C2N(Cc3cnn(C)c3)C(=O)c3cc(S(=O)(=O)NC4(C)CC4)cc(N4CCN(C)CC4)c3N21` [Example 10, (R)-1-methyl-4-((1-methyl-1H-pyrazol-4-yl)methyl)-N-(1-methylcyclopropyl)-9-(4-methylpiperazin-1-yl)-5-oxo-1,2,4,5-tetrahy droimidazo[1,2-a]quinazoline-7-sulfonamide], less than 100 nM.

`Cn1cc(CN2C(=O)c3cc(S(=O)(=O)NC4(C)CC4)cc(C4=CCCC4)c3N3CC(C)(C)N=C23)cn1` [Example 11, 9-(cyclopent-1-en-1-yl)-2,2-dimethyl-4-((1-methyl-1H-pyrazol-4-yl)methyl)-N-(1-methylcyclopropyl)-5-oxo-1,2,4,5-tetrahydroimidazo[1,2-a]quinazoline-7-sulfonamide] registered an IC50 of less than 100 nM. For `Cn1cc(CN2C(=O)c3cc(S(=O)(=O)NC4(C)CC4)cc(C4=CCOCC4)c3N3CC(C)(C)N=C23)cn1` [Example 12, 9-(3,6-dihydro-2H-pyran-4-yl)-2,2-dimethyl-4-((1-methyl-1H-pyrazol-4-yl)methyl)-N-(1-methylcyclopropyl)-5-oxo-1,2,4,5-tetrahydroimidazo[1,2-a]quinazoline-7-sulfonamide] the value was less than 100 nM; for `C[C@@H]1CN=C2N(Cc3cnn(C)c3)C(=O)c3cc(S(=O)(=O)NC4(C)CC4)cc(N4CCNCC4)c3N21` [Example 13, (R)-1-methyl-4-((1-methyl-1H-pyrazol-4-yl)methyl)-N-(1-methylcyclopropyl)-5-oxo-9-(piperazin-1-yl)-1,2,4,5-tetrahydroimidazo[1,2-a]quinazoline-7-sulfonamide], 100 to 1000 nM; for `[2H]C([2H])(c1cnn(C)c1)N1C(=O)c2cc(S(=O)(=O)NC3(C)CC3)ccc2N2C1=NC[C@H]2C#CC1CC1` [Example 14, (R)-1-(cyclopropylethynyl)-4-((1-methyl-1H-pyrazol-4-yl)methyl-d2)-N-(1-methylcyclopropyl)-5-oxo-1,2,4,5-tetrahydroimidazo[1,2-a]quinazoline-7-sulfonamide], less than 100 nM.

Compound `[2H]C([2H])(c1cnn(C)c1)N1C(=O)c2cc(S(=O)(=O)NC3(C)CC3)cc(Br)c2N2C1=NC[C@H]2C#CC1CC1` [Example 15, (R)-9-bromo-1-(cyclopropylethynyl)-4-((1-methyl-1H-pyrazol-4-yl)methyl-d2)-N-(1-methylcyclopropyl)-5-oxo-1,2,4,5-tetrahydroimidazo[1,2-a]quinazoline-7-sulfonamide] showed an IC50 of less than 100 nM. Regarding `[2H]C([2H])(c1cnn(C)c1)N1C(=O)c2cc(S(=O)(=O)NC3(C)CC3)cc(Cl)c2N2C1=NC[C@H]2C#CC1CC1` [Example 16, (R)-9-chloro-1-(cyclopropylethynyl)-4-((1-methyl-1H-pyrazol-4-yl)methyl-d2)-N-(1-methylcyclopropyl)-5-oxo-1,2,4,5-tetrahydroimidazo[1,2-a]quinazoline-7-sulfonamide], the IC50 is less than 100 nM. For `Cn1cc(CN2C(=O)c3cc(S(=O)(=O)NC4(C)CC4)cc(-c4ccc(F)cc4)c3N3CC(C)(C)N=C23)cn1` [Example 17, 9-(4-fluorophenyl)-2,2-dimethyl-4-((1-methyl-1H-pyrazol-4-yl)methyl)-N-(1-methylcyclopropyl)-5-oxo-1,2,4,5-tetrahydroimidazo[1,2-a]quinazoline-7-sulfonamide] the value was less than 100 nM; for `Cn1cc(CN2C(=O)c3cc(S(=O)(=O)NC4(C)CC4)cc(Br)c3N3CCN=C23)cn1` [Example 18, 9-bromo-4-((1-methyl-1H-pyrazol-4-yl)methyl)-N-(1-methylcyclopropyl)-5-oxo-1,2,4,5-tetrahydroimidazo[1,2-a]quinazoline-7-sulfonamide], 100 to 1000 nM; for `CC(C)OC[C@@H]1CN=C2N(Cc3cnn(C)c3)C(=O)c3cc(S(=O)(=O)NC4(C)CC4)ccc3N21` [Example 19, (S)-1-(isopropoxymethyl)-4-((1-methyl-1H-pyrazol-4-yl)methyl)-N-(1-methylcyclopropyl)-5-oxo-1,2,4,5-tetrahydroimidazo[1,2-a]quinazoline-7-sulfonamide], less than 100 nM. Take `Cc1cc(F)ccc1-c1cc(S(=O)(=O)NC2(C)CC2)cc2c1N1CCN=C1N(Cc1cnn(C)c1)C2=O` [Example 20, 9-(4-fluoro-2-methylphenyl)-4-((1-methyl-1H-pyrazol-4-yl)methyl)-N-(1-methylcyclopropyl)-5-oxo-1,2,4,5-tetrahydroimidazo[1,2-a]quinazoline-7-sulfonamide]: the half-maximal inhibitory concentration (IC50) is less than 100 nM. With `Cn1cc(CN2C(=O)c3cc(S(=O)(=O)NC4(C)CC4)cc(-c4ccc(Cl)cc4)c3N3CCN=C23)cn1` [Example 21, 9-(4-chlorophenyl)-4-((1-methyl-1H-pyrazol-4-yl)methyl)-N-(1-methylcyclopropyl)-5-oxo-1,2,4,5-tetrahydroimidazo[1,2-a]quinazoline-7-sulfonamide] the figure was 100 to 1000 nM.

The values are drawn from patent publication US20260285875A1, “INHIBITORS OF PARG” (858 Therapeutics, Inc., priority 2023, published 2026).
